# A melting point compilation (Tetko et al.; mined from patent text by program, amines drawn as free bases though some values may be those of a salt)
row,Compound,melting point [°C]
1,NS(=O)(=O)c1ccc(-c2cnn(-c3ccc(F)cc3)c(=O)c2-c2ccc(F)cc2)cc1F,222 to 224
2,O=C(NCCCC(F)(F)F)C(c1ccccc1)c1ccccc1,166
3,O=C(NC1CC1)c1ccc(N2CCNCC2)c(F)c1,141 to 143
4,Nc1ncc(-c2ccccc2)nc1Oc1ccccc1,129 to 131
5,COc1cc(CCNC(=O)[C@@H](NC(=O)OC(C)(C)C)C(C)C)ccc1OC/C=C\c1ccc(Cl)cc1,82 to 84
6,COc1cc2nc(N)nc(-c3ccc(O)c(F)c3)c2cc1OC,268 to 270
7,CC(=O)N(C)c1nc(CN2CCN(C(c3ccccc3)c3ccccc3)CC2)cs1,140 to 142
8,O=C(Nc1ccccc1O)c1cccnc1Cl,145 to 146
9,COC(=O)COc1ccc2cc(-c3csc(-c4ccccc4)n3)ccc2c1Br,156 to 159
10,O=C(Nc1cc(C(=O)O)cc(C(=O)O)c1)Oc1ccc([N+](=O)[O-])cc1,> 300
11,CN1C(=O)C(O)N(C2CCCCC2)C1=O (centres undefined),140 to 141
12,COCC(Cl)c1nc2c(C(F)(F)F)cccc2c(O)c1C(=O)Nc1nccs1 (centres undefined),186
13,C#CCN(C)c1nc(CO)cs1,69 to 70
14,CN1CCN(C(=O)c2cc(=O)c3c(OCCOc4ccccc4)cccc3o2)CC1,90 to 91.5
15,COc1ccc(-c2nc(C(=O)N3CCN(C(=O)NC(C)C)CC3)sc2-c2ccc(OC)cc2)cc1,157 to 159
16,CC(c1ccnc(C#N)c1)C(O)(Cn1cncn1)c1ccc(F)cc1F (centres undefined),188 to 189
17,CCc1nc2c(N)nc3ccccc3c2n1CCCCS(=O)(=O)c1ncccn1,172 to 175
18,O=C(O)c1cccn2c(=O)c3c(nc12)CCC3,189 to 193
19,O=c1cc(-c2ccc(O)c(F)c2)oc2ccc(CO)cc12,256 to 258
20,CC(C)COc1ccc(COc2ccc(CC(=O)O)cc2Cl)cc1,107 to 108
21,COC(=O)Nc1nc2cc(SCC3CC3(Cl)Cl)ccc2[nH]1 (centres undefined),211 to 213
22,CCOC(=O)c1c(S(N)=O)c2cc(C)ccc2n1C (centres undefined),118
23,CCOC(=O)CCC1(c2c[nH]cn2)Cc2ccccc2C1=O (centres undefined),162 to 165
24,Cc1nc(Cl)c2c(C)c(C)n(-c3c(C)cc(C)c4nsnc34)c2n1,169 to 171
25,NS(=O)(=O)c1ccc(N2CCN(CCCC3OCCc4ccccc43)CC2)cc1 (racemic),177 to 178

row,Compound,melting point [°C]
1,CN1C(=O)CC[C@]2(C)c3ccc(Sc4ccccc4)cc3CC[C@@H]12,109 to 112
2,COc1cc2c3c4c(c(-c5ccccc5)cc3n(C)c2cc1CCCO)C(=O)NC4=O,105 to 110
3,CCOC(=O)C(=Cc1cccn2c(Br)c(C)nc12)N=[N+]=[N-],108 to 110
4,CC(C)(C)CC(NC(=O)c1cccc(Cl)c1)Nc1c(Nc2cccnc2)c(=O)c1=O (centres undefined),238 to 239
5,Cc1cccc(CCOc2ccc(C#N)cc2)n1,66 to 67
6,Oc1ccccc1-c1ccnc(-c2ccccc2)n1,195 to 198
7,O=C(c1nnn(Cc2cc(C(F)(F)F)cc(C(F)(F)F)c2)c1-n1ccnc1)c1c(CO)noc1-c1ccccc1Cl,149
8,NNC1=Nc2ccc(C(F)(F)F)cc2C(c2ccccc2)=NC1,127
9,CCOC(=O)c1c(C)nc(N2CCN(c3ccccc3)CC2)c2nccnc12,85 to 87
10,O=C(O)c1ccc(-c2c3ccccc3nn2Cc2ccc(F)cc2)cc1,237 to 239
11,COc1cc2cc3[nH]cc(C#N)c(=O)c3cc2cc1OC,> 265
12,O=C1C(c2cc3c(cc2O)OCC3)c2ccc(F)cc2N1C(c1ccccc1)c1ccccc1 (centres undefined),121 to 123
13,COc1cc(Nc2nc3cccc(-c4ccc(N)cc4)c3o2)cc(OC)c1OC,192 to 196
14,CC(C)(C)Oc1c(-c2ccc(S(C)(=O)=O)cc2)cnn(-c2cccc(Cl)c2)c1=O,232 to 235
15,Cc1ccccc1C(=O)Nc1ccc(C(=O)N2CCCC(OCC(=O)N(C)C)c3ccccc32)cc1 (centres undefined),203 to 204
16,COC(=O)C1=C(C)NC(C)=C([N+](=O)[O-])C1c1cccc2ncc(-c3ccccc3)cc12 (centres undefined),262
17,O=C(O)CCCCCCCCCCCNC(=O)OCc1ccccc1,84 to 85
18,OC(CN1CCC(c2ccc(F)cc2)CC1)CN1CCC(c2ccc(F)cc2)CC1,79 to 80
19,CC(C)(C)OC(=O)CN(CBr)C(=O)c1ccccc1,98 to 102
20,O=C(NC1CCN(CCc2ccccc2)C1)C12CC3CC(CC(C3)C1)C2 (centres undefined),119 to 121
21,CC1(Cc2cc(C(C)(C)C)c(O)c(C(C)(C)C)c2)CCCCC1=O (centres undefined),75
22,Cc1cccc(CC(=O)c2ccnc(-c3ccc(OC(F)(F)F)cc3)c2)n1,60
23,COc1cccc(-c2cc(C3CNC(=O)C3)ccc2OC)c1 (centres undefined),137 to 139
24,COc1cc(COc2nn(-c3ccccc3)cc2C=CC(=O)NNC(C)=O)ccc1OCc1nc(-c2ccco2)oc1C,221 to 222
